Laboratory results taken from patent US12274728B2, “Preparation comprising omega-3 fatty acid salts and extracts of gum resins from Boswellia species” (Evonik Operations GmbH, priority 2019, dated 2025).

Tested on: human monocyte-derived M1 macrophages
Assay: Lipid mediator (LM) formation in human monocyte-derived M1 macrophages, UPLC-MS-MS
Type: cell-based
Details: M1, single agents: extracts 50 μg/mL, AKBA 10 μM, AvailOm® 3 μg/mL, 180 min (FIG. 1)
Description: Leukocyte concentrates from freshly withdrawn peripheral blood of healthy adult human donors were provided by the Institute of Transfusion Medicine, University Hospital Jena, Germany. The experimental protocol was approved by the ethical committee of the University Hospital Jena. All methods were performed in accordance with the relevant guidelines and regulations. Peripheral blood mononuclear cells (PBMC) were isolated using dextran sedimentation and Ficoll-Histopaque 1077-1 (Sigma-Aldrich, Taufkirchen, Germany) centrifugation. For differentiation and polarization towards M1 and M2, published criteria were used. […]
Macrophages (2×10^6/ml) were incubated in PBS containing 1 mM CaCl2). […] Supernatants were transferred to 2 ml of ice-cold methanol containing 10 μl of deuterium-labeled internal standards (200 nM […], d4-LTB4, d5-LXA4, d5-RvD2, d4-PGE2 and 10 μM d8-AA) to facilitate quantification. […] LM profiling was analyzed with an Acquity™ UPLC system (Waters, Milford, MA) and a QTRAP 5500 Mass Spectrometer (ABSciex, Darmstadt, Germany) equipped with a Turbo VTM Source and electrospray ionization (ESI). […] Quantification was achieved by calibration curves for each LM. […]

## 3-O-acetyl-11-keto-beta-boswellic acid [AKBA]
  LM formation / LM biosynthesis: did not significantly elevate
